According to US20030087316A1, “Diagnostic markers of liver dysfunction” (priority 2001, published 2003):
Entries after “also recorded” stand apart in the source; their conditions may differ.

Tests used:
[1] = system: proteinase(s) in EDTA plasma from LTR (kallikrein-like peptidase); assay: Peptidase activity in EDTA plasma from liver transplant recipients (LTR), chromogenic substrate, OD 405 nm; type: biochemical, human; conditions: for % Residual activity, LTR 1 / % Residual activity, LTR 2 / % Residual activity, LTR 3: substrate AGLTR-pNA; for Inhibition of the LTR plasma peptidase activity, in words: text on Tables 2 and 3, concentrations as there
Method: Blood samples were drawn into 5 ml EDTA tubes (Venoject; Terumo Corp., Elkton, Md.). The plasma was collected immediately by centrifugation at 2,000×g for 15 min at 4° C. The plasma samples were either processed immediately for analysis or stored at −70° C. Frozen samples were thawed at 4° C. prior to analysis.
(§1) The peptidase activity in plasma samples or of the purified enzymes were routinely determined at 37° C. in a 96-well plate. Each well contained 0.5 mM substrate in 100 μl of Tris-buffered saline (TBS)-EDTA buffer (50 mM Tris/150 mM NaCl/10 mM EDTA, pH 7.8) and the reaction was monitored using a microplate reader (Titertek Multiscan, Labsystems, Needham Heights, Mass.).
(§2) The enzymes C1s (100 nM), plasm in (100 nM), thrombin (100 nM), plasma kallikrein (20 nM), β-FXIIa (100 nM), trypsin (16 nM) or LTR EDTA plasma samples were incubated for 60 min at 4° C. with TBS-EDTA buffer containing either LBTI (1 mg/ml), SBTI (I mg/ml), aprotinin (0.075 mg/ml), benzamidine (50 mM), or Futhan (0.1 mg/ml), before mixing with the substrate. EDTA plasma samples from LTR were diluted 10 or 20-fold with TBS-EDTA. The chromogenic substrate AGLTR-pNA was used for all enzymes and LTR samples except C1s where the substrate S2288 was used. Based on the initial rate of increase in OD at 405 nm, the residual free enzyme level was calculated and expressed as a percentage of total activity without inhibitor added.
(§3) Ten-fold diluted normal EDTA plasma was added to each enzyme. The enzymes C1s (100 nM), plasmin (100 nM), thrombin (100 nM), plasma kallikrein (20 nM), β-FXIIa (100 nM), trypsin (16 nM) or LTR EDTA plasma samples were incubated for 60 min at 4° C. with TBS-EDTA buffer containing either C1INH (40 μg/ml), bdellin (50 μg/ml), hirudin (50 U/ml), PPACK 11(10 μM), or CTI (100 μg/ml), before adding the substrate. LTR samples were 10 or 20-fold diluted with TBS-EDTA. The chromogenic substrate AGLTR-pNA was used for all enzymes and LTP samples except C1s where the substrate S2288 was used. Based on the initial rate of increase in OD at 405 nm, the residual free enzyme was calculated and expressed as a percentage of total activity determined without inhibitor added.

thrombin = target: T1, thrombin (Homo sapiens, UniProt P00734); assay: Peptidase (amidolytic) activity of purified thrombin, chromogenic substrate, OD 405 nm; type: biochemical
T1 construct: purchased Calbiochem-Novabiochem Corp (La Jolla, Calif.)

C1s = target: T2, C1s (Homo sapiens, UniProt P09871); assay: Peptidase (amidolytic) activity of purified C1s, chromogenic substrate, 96-well plate, OD 405 nm; type: biochemical; conditions: for % Residual activity, C1s: substrate S2288; for Inhibition of C1s, in words: text on Tables 2 and 3, concentrations as there
T2 construct: purchased Advanced Research Technologies (San Diego, Calif.)
T2 sequence (P09871 438-688 limits assumed): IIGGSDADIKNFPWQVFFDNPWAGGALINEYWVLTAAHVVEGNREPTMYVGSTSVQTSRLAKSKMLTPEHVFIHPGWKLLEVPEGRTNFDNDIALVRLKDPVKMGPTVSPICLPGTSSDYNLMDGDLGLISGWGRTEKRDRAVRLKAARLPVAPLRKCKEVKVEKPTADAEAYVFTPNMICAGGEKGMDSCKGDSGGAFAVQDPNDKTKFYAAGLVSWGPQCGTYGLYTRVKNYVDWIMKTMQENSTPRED
T2 sequence (P09871 16-437 partner limits assumed): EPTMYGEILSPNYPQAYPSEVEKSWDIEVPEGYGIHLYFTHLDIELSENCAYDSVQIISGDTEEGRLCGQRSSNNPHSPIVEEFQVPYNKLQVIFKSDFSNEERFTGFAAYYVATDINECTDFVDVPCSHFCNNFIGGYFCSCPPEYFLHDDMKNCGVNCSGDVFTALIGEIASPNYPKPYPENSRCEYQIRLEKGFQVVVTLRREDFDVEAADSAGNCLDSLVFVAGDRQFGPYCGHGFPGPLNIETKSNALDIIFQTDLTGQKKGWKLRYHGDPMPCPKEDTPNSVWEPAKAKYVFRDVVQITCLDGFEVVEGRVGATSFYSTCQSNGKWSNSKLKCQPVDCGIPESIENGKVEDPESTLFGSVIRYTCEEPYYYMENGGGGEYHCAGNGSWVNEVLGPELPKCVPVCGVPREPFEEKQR
Method: as §1, §2, §3

plasma kallikrein = target: T3, plasma kallikrein (Homo sapiens, UniProt P03952); assay: Peptidase (amidolytic) activity of purified plasma kallikrein, chromogenic substrate, OD 405 nm; type: biochemical; conditions: for % Residual activity, Plasma Kallikrein: substrate AGLTR-pNA; for Inhibition of purified plasma kallikrein activity, in words: text on Tables 2 and 3, concentrations as there
T3 construct: The light chain of kallikrein contains the enzymatic domain; purchased Calbiochem-Novabiochem Corp (La Jolla, Calif.)
Method: as §1
(§4) […] EDTA plasma samples from LTR were diluted 10 or 20-fold with TBS-EDTA. The chromogenic substrate AGLTR-pNA was used for all enzymes and LTR samples except C1s where the substrate S2288 was used. Based on the initial rate of increase in OD at 405 nm, the residual free enzyme level was calculated and expressed as a percentage of total activity without inhibitor added.
(§5) Ten-fold diluted normal EDTA plasma was added to each enzyme. […] LTR samples were 10 or 20-fold diluted with TBS-EDTA. The chromogenic substrate AGLTR-pNA was used for all enzymes and LTP samples except C1s where the substrate S2288 was used. Based on the initial rate of increase in OD at 405 nm, the residual free enzyme was calculated and expressed as a percentage of total activity determined without inhibitor added.

plasmin = target: T4, plasmin (Homo sapiens, UniProt P00747); assay: Peptidase (amidolytic) activity of purified plasmin, chromogenic substrate, OD 405 nm; type: biochemical; conditions: for % Residual activity, Plasmin: substrate AGLTR-pNA
T4 construct: purchased Calbiochem-Novabiochem Corp (La Jolla, Calif.)
Method: as §1, §2, §3

β-Factor XIIa (β-FXIIa) = target: T5, β-Factor XIIa (β-FXIIa) (Homo sapiens, UniProt P00748); assay: Peptidase (amidolytic) activity of purified β-FXIIa, chromogenic substrate, OD 405 nm; type: biochemical; conditions: substrate AGLTR-pNA
T5 construct: β-Factor XIIa (β-FXIIa) was kindly provided by Dr. Mary J. Heeb; gift of Dr. Mary J. Heeb, The Scripps Research Institute
Method: as §1, §4, §5

trypsin = assay: Peptidase (amidolytic) activity of purified trypsin, chromogenic substrate, OD 405 nm; type: biochemical; conditions: Table 2
Method: as §1, §2

[2] = Table 3, LTR 1 EDTA plasma 10 or 20-fold diluted, 60 min at 4° C. with C1INH 40 μg/ml, bdellin 50 μg/ml, hirudin 50 U/ml, PPACK 11 10 μM or CTI 100 μg/ml
[3] = Table 3, LTR 2 EDTA plasma 10 or 20-fold diluted, 60 min at 4° C. with C1INH 40 μg/ml, bdellin 50 μg/ml, hirudin 50 U/ml, PPACK 11 10 μM or CTI 100 μg/ml
[4] = Table 3, LTR 3 EDTA plasma 10 or 20-fold diluted, 60 min at 4° C. with C1INH 40 μg/ml, bdellin 50 μg/ml, hirudin 50 U/ml, PPACK 11 10 μM or CTI 100 μg/ml
[5] = Table 3, thrombin 100 nM with ten-fold diluted normal EDTA plasma added, substrate AGLTR-pNA, 60 min at 4° C. with hirudin 50 U/ml or PPACK 11 10 μM
[6] = Table 3, C1s 100 nM with ten-fold diluted normal EDTA plasma added, 60 min at 4° C. with C1INH 40 μg/ml or PPACK 11 10 μM
[7] = Table 3, plasma kallikrein 20 nM with ten-fold diluted normal EDTA plasma added, 60 min at 4° C. with C1INH 40 μg/ml or PPACK 11 10 μM

T4 sequence (P00747 581-810 limits assumed, species assumed): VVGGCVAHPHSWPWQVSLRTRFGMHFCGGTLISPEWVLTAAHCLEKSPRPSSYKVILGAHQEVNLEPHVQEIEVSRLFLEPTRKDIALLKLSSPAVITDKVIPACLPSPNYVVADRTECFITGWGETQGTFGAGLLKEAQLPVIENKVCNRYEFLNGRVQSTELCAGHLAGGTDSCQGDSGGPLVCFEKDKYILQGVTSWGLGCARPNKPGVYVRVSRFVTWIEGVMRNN
T4 sequence (P00747 97-580 partner limits assumed, species assumed): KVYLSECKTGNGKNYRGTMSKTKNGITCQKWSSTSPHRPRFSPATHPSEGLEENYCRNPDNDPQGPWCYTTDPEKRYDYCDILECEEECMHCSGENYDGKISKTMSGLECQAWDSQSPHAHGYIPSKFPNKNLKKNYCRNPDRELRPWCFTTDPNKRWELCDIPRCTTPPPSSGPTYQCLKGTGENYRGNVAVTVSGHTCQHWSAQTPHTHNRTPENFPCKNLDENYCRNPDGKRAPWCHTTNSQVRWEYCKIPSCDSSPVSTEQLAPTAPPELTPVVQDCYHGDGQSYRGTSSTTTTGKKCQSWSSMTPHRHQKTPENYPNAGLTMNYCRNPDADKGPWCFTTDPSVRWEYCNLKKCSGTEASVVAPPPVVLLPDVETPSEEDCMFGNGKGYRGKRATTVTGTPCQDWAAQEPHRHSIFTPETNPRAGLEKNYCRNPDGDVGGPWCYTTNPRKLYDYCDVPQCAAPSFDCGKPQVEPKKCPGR
T3 sequence (P03952 391-638 limits assumed): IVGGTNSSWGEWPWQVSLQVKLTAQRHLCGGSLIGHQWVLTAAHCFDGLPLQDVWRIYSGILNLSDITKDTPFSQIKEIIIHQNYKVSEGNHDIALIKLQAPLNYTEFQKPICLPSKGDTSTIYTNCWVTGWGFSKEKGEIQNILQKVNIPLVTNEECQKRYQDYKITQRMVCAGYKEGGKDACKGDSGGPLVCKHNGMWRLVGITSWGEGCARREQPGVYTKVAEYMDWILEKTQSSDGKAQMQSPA
T3 sequence (P03952 20-390 partner limits assumed): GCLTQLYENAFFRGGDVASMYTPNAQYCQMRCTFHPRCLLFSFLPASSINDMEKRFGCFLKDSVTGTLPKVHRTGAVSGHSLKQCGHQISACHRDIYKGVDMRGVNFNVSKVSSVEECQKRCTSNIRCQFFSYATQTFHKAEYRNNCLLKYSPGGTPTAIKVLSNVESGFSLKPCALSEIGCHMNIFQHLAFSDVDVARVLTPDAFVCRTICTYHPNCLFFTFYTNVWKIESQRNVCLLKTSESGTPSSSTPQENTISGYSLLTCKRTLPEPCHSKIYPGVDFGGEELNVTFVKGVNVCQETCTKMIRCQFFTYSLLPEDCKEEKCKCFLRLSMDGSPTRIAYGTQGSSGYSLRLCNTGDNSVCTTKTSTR
T5 sequence (P00748 373-615 limits assumed, other chains not shown): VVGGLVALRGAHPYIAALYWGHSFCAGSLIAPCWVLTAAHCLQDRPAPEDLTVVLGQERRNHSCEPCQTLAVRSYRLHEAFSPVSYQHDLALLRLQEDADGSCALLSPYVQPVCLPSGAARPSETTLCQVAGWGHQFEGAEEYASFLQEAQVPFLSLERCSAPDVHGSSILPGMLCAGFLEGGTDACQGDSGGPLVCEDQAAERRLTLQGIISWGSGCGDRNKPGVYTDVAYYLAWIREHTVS

## Hirudin
[1]; [2]
  % Residual activity, LTR 1: 100.4%
[1]; [3]
  % Residual activity, LTR 2: 99.5%
[1]; [4]
  % Residual activity, LTR 3: 104.1%
[1]
  Inhibition of the LTR plasma peptidase activity, in words: failed to reduce the plasma peptidase activity; also recorded: not inhibited
thrombin; 50 U/ml hirudin, substrate AGLTR-pNA, versus time at 37° C.
  Inhibition of thrombin by hirudin (FIG. 8), in words: effectively inhibited
thrombin; Table 3
  Inhibition of thrombin, in words: a very effective thrombin inhibitor
thrombin; [5]
  % Residual activity, Thrombin: 2.6%

## C1INH: human C1 esterase inhibitor, purchased from Sigma Chemical
[1]; [2]
  % Residual activity, LTR 1: 81.4%
[1]; [3]
  % Residual activity, LTR 2: 84.0%
[1]; [4]
  % Residual activity, LTR 3: 41.0%
[1]
  Inhibition of the LTR plasma peptidase activity, in words: caused only partial inhibition
[1]; listed as CINH
  Inhibition of the LTR plasma peptidase activity, in words: inhibited partially
C1s; [6]
  % Residual activity, C1s: 37.8%
C1s
  Inhibition of C1s, in words: only partially inhibited C1s
Plasma kallikrein; [7]
  % Residual activity, Plasma Kallikrein: 37.0%
Plasma kallikrein
  Inhibition of purified plasma kallikrein activity, in words: caused only partial inhibition

## D-Phe-Phe-Arg-chloromethylketone [PPACK II]
[1]; [2]
  % Residual activity, LTR 1: −0.2%
[1]; [3]
  % Residual activity, LTR 2: 0.6%
[1]; [4]
  % Residual activity, LTR 3: 2.7%
[1]
  Inhibition of the LTR plasma peptidase activity, in words: totally inhibited; also recorded: substantially inhibited
C1s; [6]
  % Residual activity, C1s: 82.2%
C1s
  Inhibition of C1s, in words: failed to inhibit C1s
thrombin; [5]
  % Residual activity, Thrombin: 0.7%
plasmin; Table 3, plasmin 100 nM with ten-fold diluted normal EDTA plasma added, 60 min at 4° C. with bdellin 50 μg/ml or PPACK 11 10 μM
  % Residual activity, Plasmin: 9.2%
β-Factor XIIa (β-FXIIa); Table 3, β-FXIIa 100 nM with ten-fold diluted normal EDTA plasma added, 60 min at 4° C. with PPACK 11 10 μM or CTI 100 μg/ml
  % Residual activity, β-FXIIa: 8.4%
Plasma kallikrein; [7]
  % Residual activity, Plasma Kallikrein: 0.0%
Plasma kallikrein
  Inhibition of purified plasma kallikrein activity, in words: totally inhibited

## aprotinin
[1]; Table 2, LTR 1 EDTA plasma diluted 10 or 20-fold, 60 min at 4° C. with LBTI 1 mg/ml, SBTI I mg/ml, aprotinin 0.075 mg/ml, benzamidine 50 mM or Futhan 0.1 mg/ml
  % Residual activity, LTR 1: 35.3%
[1]; Table 2, LTR 2 EDTA plasma diluted 10 or 20-fold, 60 min at 4° C. with LBTI 1 mg/ml, SBTI I mg/ml, aprotinin 0.075 mg/ml, benzamidine 50 mM or Futhan 0.1 mg/ml
  % Residual activity, LTR 2: 40.2%
[1]; Table 2, LTR 3 EDTA plasma diluted 10 or 20-fold, 60 min at 4° C. with LBTI 1 mg/ml, SBTI I mg/ml, aprotinin 0.075 mg/ml, benzamidine 50 mM or Futhan 0.1 mg/ml
  % Residual activity, LTR 3: 21.4%
[1]
  Inhibition of the LTR plasma peptidase activity, in words: only partially effective
trypsin; concentrations as there
  Inhibition of trypsin amidolytic activity, in words: efficiently inhibited
trypsin; trypsin 16 nM, substrate AGLTR-pNA, 60 min at 4° C. with LBTI 1 mg/ml, SBTI I mg/ml, aprotinin 0.075 mg/ml, benzamidine 50 mM or Futhan 0.1 mg/ml
  % Residual activity, Trypsin: 4.8%
C1s; Table 2, C1s 100 nM, 60 min at 4° C. with LBTI 1 mg/ml, SBTI I mg/ml, aprotinin 0.075 mg/ml, benzamidine 50 mM or Futhan 0.1 mg/ml, % of total activity without inhibitor
  % Residual activity, C1s: 104.8%
C1s
  Inhibition of C1s, in words: but not C1s
thrombin; Table 2, thrombin 100 nM, substrate AGLTR-pNA, 60 min at 4° C. with LBTI 1 mg/ml, SBTI I mg/ml, aprotinin 0.075 mg/ml, benzamidine 50 mM or Futhan 0.1 mg/ml
  % Residual activity, Thrombin: 84.6%
plasmin; Table 2, concentrations as there
  Inhibition of plasmin amidolytic activity, in words: efficiently inhibited
plasmin; Table 2, plasmin 100 nM, 60 min at 4° C. with LBTI 1 mg/ml, SBTI I mg/ml, aprotinin 0.075 mg/ml, benzamidine 50 mM or Futhan 0.1 mg/ml
  % Residual activity, Plasmin: 2.4%
β-Factor XIIa (β-FXIIa); Table 2, β-FXIIa 100 nM, 60 min at 4° C. with LBTI 1 mg/ml, SBTI I mg/ml, aprotinin 0.075 mg/ml, benzamidine 50 mM or Futhan 0.1 mg/ml
  % Residual activity, β-FXIIa: 106.0%
Plasma kallikrein; Table 2, plasma kallikrein 20 nM, 60 min at 4° C. with LBTI 1 mg/ml, SBTI I mg/ml, aprotinin 0.075 mg/ml, benzamidine 50 mM or Futhan 0.1 mg/ml
  % Residual activity, Plasma Kallikrein: 3.5%
Plasma kallikrein
  Inhibition of purified plasma kallikrein activity, in words: efficiently inhibited
